From patent publication US6593334B1, “Camptothecin-taxoid conjugates as antimitotic and antitumor agents” (The University of North Carolina at Chapel Hill, priority 2002, dated 2003)

Key:
[1] = test system: KB (epidermoid carcinoma); test: Human tumor cell replication assay (sulforhodamine B), KB; format: cell-based; conditions: KB cells; for Cell Line/ED50 KB: three days of continuous exposure, SRB assay
Experimental: (§1) Human Tumor Cell Replication Assay. Compounds were tested as inhibitors of cell growth against a limited panel of solid tumor lines including KB (epidermoid carcinoma, CL 17) and a camptothecin-resistant sub-line called KB-CPT; HCT-8 (ileocecal adenocarcinoma, CCL 244); MCF-7 (breast adenocarcinoma, HTB 22); PC-3 (prostate adenocarcinoma, CRL 1435); 1A9 (ovarian carcinoma) and a paclitaxel resistant sub-line called PTX10 with mutated β-tubulin. Drug-resistant cell lines were generous gifts of Dr. Y. C. Cheng (Yale University, New Haven, Conn.) and Dr. P. Giannakakou (NIH, Bethesda, Md.). Cell lines were adapted for growth in RPMI-1640 medium supplemented with 25 mM Hepes, 2% NaHCO3, 10% (v/v) fetal calf serum and 100 μg/mL kanamycin. Cultures were maintained in a 5% CO2 atmosphere at 37° C. The sulforhodamine B microtiter plate assay described by Rubinstein et al. (1990) J. Natl. Cancer Inst. 82:1113, was used to evaluate compounds as inhibitors of cell replication. The ED50 value, the concentration of compound that inhibited cell line replication by 50% relative to control after three days of continuous exposure was interpolated from dose-response graphs fitted to data using Prizm (GraphPad software, San Diego, Calif.).
(§2) The five conjugates (16-20) were tested for cytotoxicity against a panel of human tumor cell lines (HTCL) including paclitaxel-resistant and camptothecin-resistant derivatives as described in Rubinstein et al. (1990) J. Natl. Cancer Inst. 82:1113. The results are shown in Table 2 with the values for paclitaxel (1) and camptothecin (2) given for comparison.

[2] = test system: KB-CPT (camptothecin-resistant KB sub-line); test: Human tumor cell replication assay (sulforhodamine B), KB-CPT; format: cell-based; conditions: camptothecin-resistant KB-CPT cells, three days of continuous exposure, SRB assay
Experimental: as §1, §2

1A9 (ovarian carcinoma) = test: Human tumor cell replication assay (sulforhodamine B), 1A9; format: cell-based; conditions: IA9 cells; for Cell Line/ED50 IA9: three days of continuous exposure, SRB assay
Experimental: as §1, §2

[3] = test system: 1A9-PTX10 (paclitaxel resistant sub-line with mutated β-tubulin); test: Human tumor cell replication assay (sulforhodamine B), PTX10; format: cell-based; conditions: paclitaxel-resistant IA9-PTX10 cells, three days of continuous exposure, SRB assay
Experimental: as §1, §2

[4] = test system: HCT-8 (ileocecal adenocarcinoma); test: Human tumor cell replication assay (sulforhodamine B), HCT-8; format: cell-based; conditions: HCT8 cells, three days of continuous exposure, SRB assay
Experimental: as §1, §2

[5] = test system: MCF-7 (breast adenocarcinoma); test: Human tumor cell replication assay (sulforhodamine B), MCF-7; format: cell-based; conditions: MCF-7 cells, three days of continuous exposure, SRB assay
Experimental: as §1, §2

[6] = test system: PC-3 (prostate adenocarcinoma); test: Human tumor cell replication assay (sulforhodamine B), PC-3; format: cell-based; conditions: PC-3 cells, three days of continuous exposure, SRB assay
Experimental: as §1, §2

[7] = test system: human tumor cell lines (HTCL); test: Human tumor cell line (HTCL) panel, mean over lines; format: cell-based; conditions: mean from HTCL data, does not include values for drug-resistant variants
Experimental: as §1, §2

[8] = target: T1, human DNA Topoisomerase I (Homo sapiens, UniProt P11387); test: DNA Topoisomerase I activity assay (plasmid DNA relaxation); format: biochemical
T1 construct: purchased TopoGen, Columbus, Ohio
T1 sequence (P11387 1-765): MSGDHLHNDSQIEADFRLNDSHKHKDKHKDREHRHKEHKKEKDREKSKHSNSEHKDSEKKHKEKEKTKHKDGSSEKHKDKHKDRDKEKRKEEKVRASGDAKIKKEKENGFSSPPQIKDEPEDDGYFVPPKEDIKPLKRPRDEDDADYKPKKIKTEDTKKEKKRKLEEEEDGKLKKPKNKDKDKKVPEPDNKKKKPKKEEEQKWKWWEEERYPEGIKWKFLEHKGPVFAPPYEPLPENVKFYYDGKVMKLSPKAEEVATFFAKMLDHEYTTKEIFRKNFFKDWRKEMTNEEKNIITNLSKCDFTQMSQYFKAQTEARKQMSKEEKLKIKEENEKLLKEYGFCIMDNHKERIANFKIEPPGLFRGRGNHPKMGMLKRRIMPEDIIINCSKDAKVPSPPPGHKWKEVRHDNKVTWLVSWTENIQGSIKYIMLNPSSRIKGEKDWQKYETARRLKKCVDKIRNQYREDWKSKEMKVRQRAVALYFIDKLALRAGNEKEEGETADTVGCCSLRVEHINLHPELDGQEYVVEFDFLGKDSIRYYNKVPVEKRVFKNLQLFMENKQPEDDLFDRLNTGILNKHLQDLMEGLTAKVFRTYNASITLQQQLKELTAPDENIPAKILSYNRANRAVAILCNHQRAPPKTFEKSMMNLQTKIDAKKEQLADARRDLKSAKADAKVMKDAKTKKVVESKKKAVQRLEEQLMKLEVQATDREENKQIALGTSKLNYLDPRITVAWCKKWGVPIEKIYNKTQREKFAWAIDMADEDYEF
Experimental: DNA Topoisomerase I Activity Assay. Compounds were tested as inhibitors of enzyme catalyzed plasmid DNA relaxation. Reactions contained 0.5 μg pBR322 DNA and 0.5 U human DNA Topoisomerase I (TopoGen, Columbus, Ohio), compounds at 50 μM and buffer components described previously in Krishnan et al. (2000) Anticancer Drug Design 15:255. After 15 min at 37° C., reactions were terminated by adding proteinase K (0.1 mg/mL) and 1% (w/v) SDS. After 1 hour at 50° C., DNA was resolved on a 1% (w/v) agarose gel containing […] ethidium bromide in standard TBE buffer, and photographed under UV light using polaroid 667 film.
Conjugates 16-20 were also tested as inhibitors of human DNA topo I activity in vitro (FIG. 4) in the manner as described in Krishnan et al. (2000) Anticancer Drug Design 15:255. […] None of the conjugates inhibited DNA relaxation.

[9] = at lowest test concentration (inhibition >50%)

SMILES	Cell Line/ED50 KB [1] [log10 M]	Cell Line/ED50 KB-CPT [2] [log10 M]	Cell Line/ED50 IA9 (1A9 (ovarian carcinoma)) [log10 M]	Cell Line/ED50 IA9-PTX10 [3] [log10 M]	Cell Line/ED50 HCT8 [4] [log10 M]	Cell Line/ED50 MCF-7 [5] [log10 M]	Cell Line/ED50 PC-3 [6] [log10 M]	Mean ED50 [7] [log10 M]	observed percentage inhibition (bracketed value) [1, 9]	observed percentage inhibition (bracketed value) (1A9 (ovarian carcinoma); [9])	inhibition of human DNA topo I activity in vitro [8]
CC[C@@]1(O)C(=O)OCc2c1cc1n(c2=O)Cc2cc3ccccc3nc2-1 [Camptothecin, camptothecin]	−10.8	−7.5	−10.2	−9.4	−9.3	−7.1	−7.1	−8.9			
CCC1(O)C(=O)OCc2c1cc1n(c2=O)Cc2c-1nc1ccccc1c2C=NCCC(=O)OC1CC2OCC2(OC(C)=O)C2C(OC(=O)c3ccccc3)C3(O)CC(OC(=O)C(O)C(NC(=O)c4ccccc4)c4ccccc4)C(C)=C(C(OC(C)=O)C(=O)C12C)C3(C)C (stereo not drawn) [Compound 16]	<−11.0	−11.1	<−11.0	−10.9	−10.6	−7.1	−7.0	<−9.3	(67) %	(76) %	only marginal activity
CCC1(O)C(=O)OCc2c1cc1n(c2=O)Cc2c-1nc1ccccc1c2C=NCCCC(=O)OC1CC2OCC2(OC(C)=O)C2C(OC(=O)c3ccccc3)C3(O)CC(OC(=O)C(O)C(NC(=O)c4ccccc4)c4ccccc4)C(C)=C(C(OC(C)=O)C(=O)C12C)C3(C)C (stereo not drawn) [Compound 17]	−10.4	−9.7	−10.2	−10.5	−10.0	−7.1	−7.1	−9.0			inactive
CCC1(O)C(=O)OCc2c1cc1n(c2=O)Cc2c-1nc1ccccc1c2C=NCCCCCC(=O)OC1CC2OCC2(OC(C)=O)C2C(OC(=O)c3ccccc3)C3(O)CC(OC(=O)C(O)C(NC(=O)c4ccccc4)c4ccccc4)C(C)=C(C(OC(C)=O)C(=O)C12C)C3(C)C (stereo not drawn) [Compound 18]	−9.3	−8.1	−10.0	−10.5	−10.6	−7.5	−7.5	−9.0			only marginal activity
CC(=O)O[C@H]1C(=O)[C@@]2(C)[C@H]([C@H](OC(=O)c3ccccc3)[C@]3(O)C[C@H](OC(=O)[C@H](O)[C@@H](NC(=O)c4ccccc4)c4ccccc4)C(C)=C1C3(C)C)[C@]1(OC(C)=O)CO[C@@H]1C[C@@H]2O [Paclitaxel, reference compound]	−12.1	−12.2	−12.2	−11.7	−7.1	−13.9	−10.3	−11.1			
